In patent US7235262B2, “Use of bioactive fraction from cow urine distillate (‘Go-mutra’) as a bio-enhancer of anti-infective, anti-cancer agents and nutrients” (Council of Scientific and Industrial Research, priority 2000, dated 2007):
Values after ≈ are worked out from the molar mass of the structure shown. Read-outs that look alike come from different tables or passages of the source.

Key:
Bacillus subtilis = test: Broth assay for bio-enhancement of antibiotic killing, Gram-positive bacterium; details: cow urine distillate 1 μl/mL
Procedure: (§1) For this, the cells are treated with compound for 4 to 8 hours and then washed free of it by centrifugation and washing in sterile water. This was followed by treatment with antibiotic as in steps b to d.
(§2) In the next step of elucidation of the enhancer action, the applicants experimented with the killing activities of different antibiotics against the bacteria singly and in combination with the test component (cow urine distillate) following the method described above. […] In all the experiments the cow urine distillate concentration was kept at 1 μl/mL unless it is specifically mentioned.

Escherichia coli = test: Broth assay for bio-enhancement of antibiotic killing, Gram-negative bacterium; details: cow urine distillate 1 μl/mL
Procedure: as §1, §2

Mycobacterium smegmatis = test: Broth assay for bio-enhancement of antibiotic killing, Mycobacterium smegmatis; details: antibiotic 0.5 μg/ml; cow urine distillate 1 μl/mL
Procedure: as §1, §2

fungal strains [1] = test: organism not typed; details: read-out: Minimum inhibitory Concentration (MIC)
Procedure: (§3) The methodology followed by us for this screening included specifically designed bioassays as described below.
as §1
(§4) The Concentration of the Active Fraction is Kept at 10 μg/ml.

fungal strains [2] = details: active fraction Gm-IV, where present, at 10 μg/ml
Procedure: as §3, §1, §4

[3] = tested on: oxyR mutant of bacterium Escherichia coli; assay type: cell-based
[4] = Bioavailability test through biological membrane (U-tube); assay type: in vitro ADME, goat; details: Rifampicin 1 mg/ml, Fraction Gm-IV (where present) 1.0 μg/ml
[5] = tested on: MCF-7 (Breast cancer cell line); assay type: cell-based; details: for Final titre of viable cells upon treatment with taxol alone / Final titre of viable cells upon treatment with taxol + cow urine distillate: MCF-7, count after 36 hours; for Final titre of viable cells upon treatment with taxol + cow urine distillate: cow urine distillate 1 μl/ml

CC1(C)S[C@@H]2[C@H](NC(=O)[C@H](N)c3ccccc3)C(=O)N2[C@H]1C(=O)O [Ampicillin]
Fold enhancement in antibiotic activity (Bacillus subtilis; antibiotic 0.1 μg/ml): 3.3 | Fold enhancement in antibiotic activity (Bacillus subtilis; antibiotic 0.5 μg/ml): 3.0 | Fold enhancement in antibiotic activity (Escherichia coli; antibiotic 4 μg/ml): 1.85 | Fold enhancement in antibiotic activity (Escherichia coli; antibiotic 6 μg/ml): 4.50 | Fold enhancement in antibiotic activity (Escherichia coli; antibiotic 8 μg/ml): 5.00 | Fold enhancement in antibiotic activity (Mycobacterium smegmatis): 11.6

Clc1ccccc1C(c1ccccc1)(c1ccccc1)n1ccnc1 [Clotrimazol]
MIC (fungal strains [1]): 4.4 µg/mL (≈ 12.8 µM) | Fold enhancement (fungal strains [2]): 0.0

NNC(=O)c1ccncc1 [Isoniazid]
enhancement action of the distillate for INH [3]: enhancement action

CO[C@H]1/C=C/O[C@@]2(C)Oc3c(C)c(O)c4c(O)c(c(/C=N/N5CCN(C)CC5)c(O)c4c3C2=O)NC(=O)/C(C)=C\C=C\[C@H](C)[C@H](O)[C@@H](C)[C@@H](O)[C@@H](C)[C@H](OC(C)=O)[C@@H]1C [Rifampicin]
OD measured as Absorbance across the membrane in receiving tube ([4]; A340, after 1 hr): 0.0097 | OD measured as Absorbance across the membrane in receiving tube ([4]; A340, after 2 hr): 0.0214 | OD measured as Absorbance across the membrane in receiving tube ([4]; A340, after 4 hr): 0.0771 | OD measured as Absorbance across the membrane in receiving tube ([4]; A340, after 5 hr): 0.0858 | OD measured as Absorbance across the membrane in receiving tube ([4]; A340, after 6 hr): 0.0910 | OD measured as Absorbance across the membrane in receiving tube ([4]; A475, after 1 hr): 0.0177 | OD measured as Absorbance across the membrane in receiving tube ([4]; A475, after 2 hr): 0.0284 | OD measured as Absorbance across the membrane in receiving tube ([4]; A475, after 3 hr): 0.0309 | OD measured as Absorbance across the membrane in receiving tube ([4]; A475, after 4 hr): 0.0412 | OD measured as Absorbance across the membrane in receiving tube ([4]; A475, after 5 hr): 0.0484 | OD measured as Absorbance across the membrane in receiving tube ([4]; A475, after 6 hr): 0.0496

CC(=O)O[C@H]1C(=O)[C@@]2(C)[C@H]([C@H](OC(=O)c3ccccc3)[C@]3(O)C[C@H](OC(=O)[C@H](O)[C@@H](NC(=O)c4ccccc4)c4ccccc4)C(C)=C1C3(C)C)[C@]1(OC(C)=O)CO[C@@H]1C[C@@H]2O [Taxol, Paclitaxel]
Final titre of viable cells upon treatment with taxol alone ([5]; Taxol 0.001 μg/ml): 0.059 × 10^6 | Final titre of viable cells upon treatment with taxol + cow urine distillate ([5]; Taxol 0.001 μg/ml): 0.039 × 10^6 | Final titre of viable cells upon treatment with taxol alone ([5]; Taxol 0.005 μg/ml): 0.042 × 10^6 | Final titre of viable cells upon treatment with taxol + cow urine distillate ([5]; Taxol 0.005 μg/ml): 0.032 × 10^6 | Final titre of viable cells upon treatment with taxol alone ([5]; Taxol 0.01 μg/ml): 0.036 × 10^6 | Final titre of viable cells upon treatment with taxol + cow urine distillate ([5]; Taxol 0.01 μg/ml): 0.012 × 10^6 | killing action of Taxol with cow urine distillate ([5]; cancerous cell line MCF-7): increased | enhancement in the activity of taxol by the distillate ([5]; distillate at 1 μl/ml): at least 5 folds
